Data: patent publication US10814002B2, “Patch and method for producing the same” (HISAMITSU PHARMACEUTICAL CO., INC., priority 2012, dated 2020)
Structures can show the parent of a compound that is named as a salt.

Assay: Oral (sublingual) administration of 5 mg asenapine maleate to healthy adult men
Type: in vivo, human
Conditions: 5 mg asenapine maleate sublingual, healthy adult men (18)
Experimental: The N-desmethyl asenapine tends to cause adverse effects such as adverse effects on the cardiovascular system in comparison with asenapine. For example, in a case where 5 mg of asenapine maleate is orally administered (sublingual administration), the area under plasma concentration-time curve of the free asenapine for a period between 10 minutes and 72 hours (AUC0.17.72) can be 25,000 to 38,000 pg·hr/mL. In this case, N-desmethyl asenapine has an AUC0.17.72 of 10,000 to 17,000 pg·hr/mL, which is 40% or more of the […] of the free asenapine. In contrast, when approximately the same amount (4.8 mg) of asenapine is administrated using the patch of the present invention comprising the isopropyl palmitate in the adhesive agent layer, this makes it possible to sufficiently suppress the AUC of the asenapine metabolite while the free asenapine has an AUC equivalent to that in the case of the oral administration.
Furthermore, in a case where the patch obtained in Example 2 was administrated, the incidence proportion of adverse effects on the cardiovascular system in the AUC measurement test was 6%. […]

AUC0.17.72 of the free asenapine (average value) (plasma, 10 minutes to 72 hours): 32,074 pg·hr/mL
SMILES: CN1C[C@@H]2c3ccccc3Oc3ccc(Cl)cc3[C@H]2C1 (relative stereo) [asenapine maleate, trans-5-chloro-2-methyl-2,3,3a,12b-tetrahydro-1H-diben z[2,3:6,7]oxepino[4,5-c]pyrrole]
incidence proportion of adverse effects on the cardiovascular system: 39%
